Experimental data published in patent publication US20230372328A1, “ORAL DELAYED BURST FORMULATION OF LOW-DOSE NALTREXONE AND METHODS FOR TREATING FIBROMYALGIA AND LONG COVID” (Scilex Holding Company, priority 2020, published 2023).
Structures can show the parent of a compound that is named as a salt. Where two headings read alike, the source gives them in different places.

Experiments:
[1] = cited from earlier work
[2] = Naltrexone HCl excipient compatibility (stressed stability) study, assay and impurities; format: physicochemical
Experimental: An excipient compatibility study was designed and conducted to screen excipients for the low dose naltrexone HCl delayed release capsules for formulation development purposes. Based on the formulation approach of a multi-particulate system filled in capsule dosage form, the drug layered spheres were coated with a functional pH dependent polymer film.
The physical mixtures were prepared by weighing individual material into glass crimp vials and mixing using a vortex. The open samples were left open and closed samples were tightly closed using a crimper.

[3] = cited from earlier work; remark: listed apart in the source
[4] = 40° C./ 75% RH - Closed - 2 weeks
[5] = 40° C./ 75% RH - Open - 2 weeks

## C=CCN1CC[C@]23c4c5ccc(O)c4OC2C(=O)CC[C@@]3(O)[C@H]1C5 (stereo partly drawn) [Naloxone hydrochloride, 17-allyl-4,5 α-epoxy, 3-14-dihydroxymorphinan-6-one hydrochloride]
[1]; in alcohol
  solubility: slightly soluble
[1]; in ether and in chloroform
  solubility: practically insoluble
[1]; in water, in dilute acids, and in strong alkali
  solubility: soluble

## O=C1CC[C@@]2(O)[C@H]3Cc4ccc(O)c5c4[C@@]2(CCN3CC2CC2)[C@H]1O5 [Naltrexone Control]
[2]; [4]
  Assay (%): 99.3%
  Impurities (%): 0.6%
[2]; [5]
  Assay (%): 101.5%
  Impurities (%): 0.6%
[2]; Initial
  Assay (%): 99.4%
  Impurities (%): 0.4%

## C=CCN1CC[C@]23c4c5ccc(O)c4O[C@H]2C(=O)CC[C@@]3(O)[C@H]1C5 [naloxone]
[3]; in vivo
  half-life: 3 h
[3]; oral
  oral bioavailability: ~3%
